Columns and labels:
Format in all cases: cell-based
[1] = target: T1, wild-type EGFR transformed Ba/F3 cells (Homo sapiens, UniProt P00533); assay: Proliferation inhibition assay, wild-type EGFR transformed Ba/F3 cells; settings: MTS assay, 72 hours
T1 construct: expressed in transfected cells; host or cells: Ba/F3
Protocol: (§1) Cell growth inhibition can be assessed by MTS assay or by Cell Titer Glo Luminescent Cell viability assay (Promega®). Cells are seeded and grow in culture plates before they are exposed to representative compounds of the application for various duration. The viability of the cells are then assessed. […] The growth curves can be fitted using a nonlinear regression model with sigmoidal dose response.
(§2) Cell growth inhibition was assessed by MTS assay for Ba/F3, DFCI58-229, and DFCI127c cells, or by Cell Titer Glo Luminescent Cell viability assay (Promega®) for DFC1362JC cells, 3000 Ba/F3 cells were seeded for per well in 96-well plates, and were exposed to representative compounds of the application (3.3 nM to 10 μM) for 72 hours. For DFCI58-229, DFCI127c, and DFC1362JC cells, 5000 cells were seeded per well. All experimental points included 6 to 12 wells. […] The growth curves were fitted using a nonlinear regression model with sigmoidal dose response.
(§3) Activities of representative compounds of the present application in inhibiting EGFR and HER2 were tested by MTS assay (for Ba/F3 cell, DFCI58-229 cell, and DFCI127c cells) or by CellTiter-Glot luminescent cell viability assay (for DFCI362JC cells). For assays with Ba/F3 cells, 3000 cells were seeded for per well in 96-well plates and were exposed to indicated compounds with a concentration of 3.3 to 10 μM for 72 hours. For assays with DFCI58-229 cell, DFCI127c cell, or DFCI362JC cell, 5000 cells were seeded per well in 96-well plates and were exposed to indicated compounds with a concentration of 3.3 to 10 μM for 72 hours.

[2] = target: T2, EGFR InsGY (D770delinsGY) transformed Ba/F3 cells (Homo sapiens, UniProt P00533, D770Y/INS769G); assay: Proliferation inhibition assay, EGFR InsGY transformed Ba/F3 cells; settings: MTS assay, 72 hours
T2 construct: expressed in transfected cells; host or cells: Ba/F3
Protocol: as §1, §2, §3

[3] = target: T3, EGFR InsSVD (D770_N771insSVD) transformed Ba/F3 cells (Homo sapiens, UniProt P00533, INS770SVD); assay: Proliferation inhibition assay, EGFR InsSVD transformed Ba/F3 cells; settings: MTS assay, 72 hours
T3 construct: expressed in transfected cells; host or cells: Ba/F3
Protocol: as §1, §2, §3

[4] = target: T4, EGFR InsASV (V769_D770insASV) transformed Ba/F3 cells (Homo sapiens, UniProt P00533, INS769ASV); assay: Proliferation inhibition assay, EGFR InsASV transformed Ba/F3 cells; settings: MTS assay, 72 hours
T4 construct: expressed in transfected cells; host or cells: Ba/F3
Protocol: as §1, §2, §3

[5] = target: T5, EGFR InsHH (Y764_V765insHH) transformed Ba/F3 cells (Homo sapiens, UniProt P00533, INS764HH); assay: Proliferation inhibition assay, EGFR InsHH transformed Ba/F3 cells; settings: MTS assay, 72 hours
T5 construct: expressed in transfected cells; host or cells: Ba/F3
Protocol: as §1, §2, §3

[6] = target: T6, EGFR InsH transformed Ba/F3 cells (Homo sapiens, UniProt P00533, DUP773-773); assay: Proliferation inhibition assay, EGFR InsH transformed Ba/F3 cells; settings: MTS assay, 72 hours
T6 construct: expressed in transfected cells; host or cells: Ba/F3
Protocol: as §1, §2, §3

[7] = target: T7, EGFR InsNPG (D770_N771insNPG) transformed Ba/F3 cells (Homo sapiens, UniProt P00533, INS770NPG); assay: Proliferation inhibition assay, EGFR InsNPG transformed Ba/F3 cells; settings: MTS assay, 72 hours
T7 construct: expressed in transfected cells; host or cells: Ba/F3
Protocol: as §1, §2, §3

[8] = target: T8, wild-type HER2 transformed Ba/F3 cells (Homo sapiens, UniProt P04626); assay: Proliferation inhibition assay, wild-type HER2 transformed Ba/F3 cells; settings: MTS assay, 72 hours
T8 construct: expressed in transfected cells; host or cells: Ba/F3
Protocol: as §1, §2, §3

[9] = target: T9, HER2 InsYVMA (A775_G776insYVMA) transformed Ba/F3 cells (Homo sapiens, UniProt P04626, INS775YVMA); assay: Proliferation inhibition assay, HER2 InsYVMA transformed Ba/F3 cells; settings: MTS assay, 72 hours
T9 construct: expressed in transfected cells; host or cells: Ba/F3
Protocol: as §1, §2, §3

[10] = target: T10, HER2 InsVC (G776delinsVC) transformed Ba/F3 cells (Homo sapiens, UniProt P04626, G776C/INS775V); assay: Proliferation inhibition assay, HER2 InsVC transformed Ba/F3 cells; settings: MTS assay, 72 hours, Table 9 key
T10 construct: expressed in transfected cells; host or cells: Ba/F3
Protocol: as §1, §2, §3

[11] = target: T11, HER2 InsGSP (P780_Y781insGSP) transformed Ba/F3 cells (Homo sapiens, UniProt P04626, INS780GSP); assay: Proliferation inhibition assay, HER2 InsGSP transformed Ba/F3 cells; settings: MTS assay, 72 hours, Table 9 key
T11 construct: expressed in transfected cells; host or cells: Ba/F3
Protocol: as §1, §2, §3

[12] = target: T12, HER2 InsWLV transformed Ba/F3 cells (Homo sapiens, UniProt P04626, INS773WL/M774V); assay: Proliferation inhibition assay, HER2 InsWLV transformed Ba/F3 cells; settings: MTS assay, 72 hours
T12 construct: expressed in transfected cells; host or cells: Ba/F3
Protocol: as §1, §2, §3

T3 sequence (P00533 with tags, fused parts or gaps INS770SVD): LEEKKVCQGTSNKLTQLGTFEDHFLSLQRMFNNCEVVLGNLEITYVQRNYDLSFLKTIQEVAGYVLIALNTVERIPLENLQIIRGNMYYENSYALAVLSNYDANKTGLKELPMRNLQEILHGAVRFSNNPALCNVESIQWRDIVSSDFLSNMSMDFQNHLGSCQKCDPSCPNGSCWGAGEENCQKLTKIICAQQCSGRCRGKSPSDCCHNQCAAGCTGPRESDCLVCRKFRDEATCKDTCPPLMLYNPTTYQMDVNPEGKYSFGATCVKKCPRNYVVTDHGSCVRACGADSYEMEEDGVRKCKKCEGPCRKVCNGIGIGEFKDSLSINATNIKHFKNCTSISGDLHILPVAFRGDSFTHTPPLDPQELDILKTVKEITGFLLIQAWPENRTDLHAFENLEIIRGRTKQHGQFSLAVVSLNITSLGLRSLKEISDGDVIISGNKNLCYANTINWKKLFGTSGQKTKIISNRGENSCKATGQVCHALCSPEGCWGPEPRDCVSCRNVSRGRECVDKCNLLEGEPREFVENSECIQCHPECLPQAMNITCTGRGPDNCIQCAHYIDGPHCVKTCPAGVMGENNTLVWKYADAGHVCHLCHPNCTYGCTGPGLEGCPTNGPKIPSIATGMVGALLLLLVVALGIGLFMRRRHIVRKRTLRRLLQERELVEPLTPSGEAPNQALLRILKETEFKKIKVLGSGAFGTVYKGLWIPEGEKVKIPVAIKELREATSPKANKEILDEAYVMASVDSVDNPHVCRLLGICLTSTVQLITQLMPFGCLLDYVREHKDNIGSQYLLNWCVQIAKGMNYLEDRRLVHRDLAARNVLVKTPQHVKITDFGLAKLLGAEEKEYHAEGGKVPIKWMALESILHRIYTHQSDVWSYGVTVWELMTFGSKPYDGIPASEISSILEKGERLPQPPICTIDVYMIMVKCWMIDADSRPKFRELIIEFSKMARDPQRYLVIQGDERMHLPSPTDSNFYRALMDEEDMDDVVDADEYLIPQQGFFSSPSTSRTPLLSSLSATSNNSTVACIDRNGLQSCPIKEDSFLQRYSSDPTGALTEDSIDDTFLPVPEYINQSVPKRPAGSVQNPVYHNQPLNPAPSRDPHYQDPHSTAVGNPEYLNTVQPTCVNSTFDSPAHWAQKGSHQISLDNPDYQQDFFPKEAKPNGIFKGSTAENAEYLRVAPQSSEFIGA
T7 sequence (P00533 with tags, fused parts or gaps INS770NPG): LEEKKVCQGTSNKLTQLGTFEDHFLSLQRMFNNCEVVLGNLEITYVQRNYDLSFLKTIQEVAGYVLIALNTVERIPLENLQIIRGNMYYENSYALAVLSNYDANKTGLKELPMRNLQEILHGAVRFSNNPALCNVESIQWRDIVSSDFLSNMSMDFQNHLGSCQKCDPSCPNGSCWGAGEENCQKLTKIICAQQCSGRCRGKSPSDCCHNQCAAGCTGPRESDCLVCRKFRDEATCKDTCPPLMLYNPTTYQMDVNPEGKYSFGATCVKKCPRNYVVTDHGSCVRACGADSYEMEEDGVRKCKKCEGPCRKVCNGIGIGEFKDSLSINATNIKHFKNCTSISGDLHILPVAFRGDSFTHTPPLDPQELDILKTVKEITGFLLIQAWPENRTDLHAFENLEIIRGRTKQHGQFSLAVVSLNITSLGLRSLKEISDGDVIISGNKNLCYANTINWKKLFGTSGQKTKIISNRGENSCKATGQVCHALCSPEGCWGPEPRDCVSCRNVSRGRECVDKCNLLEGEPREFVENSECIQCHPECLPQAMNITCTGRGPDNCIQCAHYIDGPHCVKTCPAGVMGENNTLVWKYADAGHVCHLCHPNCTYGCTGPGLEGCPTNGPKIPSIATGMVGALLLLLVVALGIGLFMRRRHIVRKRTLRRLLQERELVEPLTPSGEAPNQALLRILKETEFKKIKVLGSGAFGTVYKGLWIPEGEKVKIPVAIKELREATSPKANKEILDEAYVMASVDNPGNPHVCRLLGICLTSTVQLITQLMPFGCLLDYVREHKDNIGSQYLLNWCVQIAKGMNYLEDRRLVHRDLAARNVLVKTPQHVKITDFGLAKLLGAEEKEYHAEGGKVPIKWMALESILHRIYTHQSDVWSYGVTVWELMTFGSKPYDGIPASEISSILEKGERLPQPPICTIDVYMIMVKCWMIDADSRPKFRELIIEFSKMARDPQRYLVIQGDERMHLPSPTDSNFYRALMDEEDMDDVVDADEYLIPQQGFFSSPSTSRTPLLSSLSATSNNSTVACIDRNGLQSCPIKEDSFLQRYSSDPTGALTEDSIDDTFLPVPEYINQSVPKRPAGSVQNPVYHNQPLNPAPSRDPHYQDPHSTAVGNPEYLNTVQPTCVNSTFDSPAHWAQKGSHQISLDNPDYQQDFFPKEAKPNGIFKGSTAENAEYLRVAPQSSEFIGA
T1 sequence (P00533 25-1210): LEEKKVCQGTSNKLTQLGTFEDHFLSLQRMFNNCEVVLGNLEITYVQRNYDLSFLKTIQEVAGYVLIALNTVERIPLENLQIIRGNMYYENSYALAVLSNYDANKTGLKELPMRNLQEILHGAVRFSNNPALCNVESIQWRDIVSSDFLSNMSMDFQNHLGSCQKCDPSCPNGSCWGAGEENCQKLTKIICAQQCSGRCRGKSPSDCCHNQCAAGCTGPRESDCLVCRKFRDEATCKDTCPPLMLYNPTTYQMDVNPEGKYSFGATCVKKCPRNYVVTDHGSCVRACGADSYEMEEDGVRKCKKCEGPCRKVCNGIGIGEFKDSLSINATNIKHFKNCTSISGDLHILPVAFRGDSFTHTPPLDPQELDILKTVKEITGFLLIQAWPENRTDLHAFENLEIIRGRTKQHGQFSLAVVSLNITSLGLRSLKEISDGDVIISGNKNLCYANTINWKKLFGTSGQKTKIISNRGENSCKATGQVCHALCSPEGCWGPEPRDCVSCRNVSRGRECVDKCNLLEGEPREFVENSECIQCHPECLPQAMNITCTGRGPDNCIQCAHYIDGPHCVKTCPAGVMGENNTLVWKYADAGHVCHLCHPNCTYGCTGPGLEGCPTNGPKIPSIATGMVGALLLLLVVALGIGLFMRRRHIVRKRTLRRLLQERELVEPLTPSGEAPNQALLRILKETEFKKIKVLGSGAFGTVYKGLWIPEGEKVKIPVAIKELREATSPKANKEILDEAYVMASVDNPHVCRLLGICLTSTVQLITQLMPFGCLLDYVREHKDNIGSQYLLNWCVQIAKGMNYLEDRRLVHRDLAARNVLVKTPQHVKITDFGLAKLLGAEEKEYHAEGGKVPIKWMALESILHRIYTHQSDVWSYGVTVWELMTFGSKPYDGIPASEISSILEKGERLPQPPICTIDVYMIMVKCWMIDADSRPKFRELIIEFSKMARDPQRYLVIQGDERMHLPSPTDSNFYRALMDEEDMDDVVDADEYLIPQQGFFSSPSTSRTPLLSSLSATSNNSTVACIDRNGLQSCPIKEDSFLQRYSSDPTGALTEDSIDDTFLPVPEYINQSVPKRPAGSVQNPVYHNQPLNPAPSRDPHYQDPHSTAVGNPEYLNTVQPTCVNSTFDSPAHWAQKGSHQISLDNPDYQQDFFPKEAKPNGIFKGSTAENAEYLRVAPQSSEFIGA
T9 sequence (P04626 with tags, fused parts or gaps INS775YVMA): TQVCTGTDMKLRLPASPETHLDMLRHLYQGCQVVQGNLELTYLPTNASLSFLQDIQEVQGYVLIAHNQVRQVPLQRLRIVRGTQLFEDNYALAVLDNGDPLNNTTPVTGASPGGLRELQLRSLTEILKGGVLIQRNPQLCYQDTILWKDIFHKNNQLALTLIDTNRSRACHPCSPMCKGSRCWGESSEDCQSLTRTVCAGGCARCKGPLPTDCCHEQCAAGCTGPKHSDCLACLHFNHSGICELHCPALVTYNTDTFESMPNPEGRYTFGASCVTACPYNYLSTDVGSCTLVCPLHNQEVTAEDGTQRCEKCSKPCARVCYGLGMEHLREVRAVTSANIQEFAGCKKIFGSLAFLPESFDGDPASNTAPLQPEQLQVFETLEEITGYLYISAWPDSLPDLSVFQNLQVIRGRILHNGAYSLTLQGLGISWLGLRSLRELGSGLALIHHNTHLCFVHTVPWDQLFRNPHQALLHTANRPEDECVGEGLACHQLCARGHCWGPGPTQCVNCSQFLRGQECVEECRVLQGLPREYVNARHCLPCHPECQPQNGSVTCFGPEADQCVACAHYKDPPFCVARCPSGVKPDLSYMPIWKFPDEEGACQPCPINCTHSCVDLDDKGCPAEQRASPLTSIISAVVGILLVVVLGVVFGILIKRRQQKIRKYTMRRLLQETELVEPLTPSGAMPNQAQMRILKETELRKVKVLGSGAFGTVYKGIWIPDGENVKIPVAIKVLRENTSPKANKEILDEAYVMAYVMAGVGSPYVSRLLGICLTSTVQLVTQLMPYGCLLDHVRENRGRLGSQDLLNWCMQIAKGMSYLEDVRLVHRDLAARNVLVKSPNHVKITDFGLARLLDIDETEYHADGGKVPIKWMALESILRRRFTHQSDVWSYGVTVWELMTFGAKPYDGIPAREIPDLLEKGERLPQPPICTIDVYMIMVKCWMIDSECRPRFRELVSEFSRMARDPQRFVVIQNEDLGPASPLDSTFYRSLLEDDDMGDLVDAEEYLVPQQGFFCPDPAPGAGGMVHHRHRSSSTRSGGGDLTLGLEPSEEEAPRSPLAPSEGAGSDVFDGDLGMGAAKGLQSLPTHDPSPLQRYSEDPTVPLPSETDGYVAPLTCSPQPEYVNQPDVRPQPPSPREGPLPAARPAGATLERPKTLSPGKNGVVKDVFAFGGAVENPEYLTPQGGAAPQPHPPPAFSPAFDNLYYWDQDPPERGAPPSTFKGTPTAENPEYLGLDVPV

Row | Structure (SMILES) | EC50 [1] [nM] | EC50 [2] [nM] | EC50 [3] [nM] | EC50 [4] [nM] | EC50 [5] [nM] | EC50 [6] [nM] | EC50 [7] [nM] | EC50 ([8]; Table 9 key) [nM] | EC50 ([9]; Table 9 key) [nM] | EC50 [10] [nM] | EC50 [11] [nM] | EC50 ([12]; Table 9 key) [nM] | EC50 ([8]; Table 10 key) [nM] | EC50 ([9]; Table 10 key) [nM] | EC50 ([12]; Table 10 key) [nM]
1 | C=CC(=O)Nc1cccc(-n2c(=O)c(Oc3ccc(F)cc3F)cc3cnc(Nc4cn(C)nc4OCC)nc32)c1 [Compound 8] | < 200 | < 200 | < 200 | < 200 | < 200 | < 200 | < 200 | < 100 | < 100 | < 100 | < 100 | < 100 | – | – | –
2 | C=CC(=O)Nc1cc(Nc2ncc3cc(Oc4ccc(F)cc4F)c(=O)n(C)c3n2)c(OC)cc1N(C)CCN(C)C [Compound 29, N-(5-((6-(2,4-difluorophenoxy)-8-methyl-7-oxo-7,8-dihydropyrido[2,3-d]pyrimidin-2-yl)amino)-2-((2-(dimethylamino)ethyl)(methyl)amino)-4-methoxyphenyl)acrylamide] | < 200 | < 200 | < 200 | < 200 | < 200 | < 200 | < 200 | < 100 | < 100 | < 100 | < 100 | < 100 | – | – | –
3 | CN(C)C/C=C/C(=O)Nc1cccc(-n2c(=O)c(Oc3ccc(F)cc3F)cc3cnc(Nc4cnn(C)c4)nc32)c1 [Compound 10] | 200 to 600 | 200 to 600 | 200 to 600 | < 200 | 200 to 600 | 600 to 1000 | < 200 | < 100 | < 100 | 250 to 500 | < 100 | 250 to 500 | – | – | –
4 | C=CC(=O)N1CCC(Cn2c(=O)c(Oc3ccc(F)cc3F)cc3cnc(Nc4cnn(C)c4)nc32)C1 (stereo not shown) [Compound 26] | < 200 | < 200 | < 200 | < 200 | 600 to 1000 | > 1000 | < 200 | < 100 | > 500 | 250 to 500 | < 100 | 100 to 250 | – | – | –
5 | C=CC(=O)Nc1cc(Nc2ncc3cc(Oc4ccc(F)cc4Cl)c(=O)n(C)c3n2)c(OC)cc1N(C)CCN(C)C [Compound 134] | < 200 | < 200 | < 200 | – | – | 200 to 600 | – | – | – | – | – | – | < 200 | < 200 | < 200
6 | C=CC(=O)Nc1cccc(-n2c(=O)c(Oc3ccc(F)cc3F)cc3cnc(Nc4cn(C)nc4OC)nc32)c1 [Compound 4] | < 200 | < 200 | < 200 | < 200 | < 200 | < 200 | < 200 | < 100 | < 100 | < 100 | < 100 | < 100 | – | – | –
7 | C=CC(=O)Nc1cccc(-n2c(=O)c(Oc3ccc(F)cc3)cc3cnc(Nc4cnn(C)c4)nc32)c1 [Compound 1, N-(3-(6-(4-fluorophenoxy)-2-((1-methyl-1H-pyrazol-4-yl)amino)-7-oxopyrido[2,3-d]pyrimidin-8(7H)-yl)phenyl)acrylamide] | < 200 | < 200 | < 200 | < 200 | < 200 | < 200 | < 200 | < 100 | < 100 | < 100 | < 100 | 100 to 250 | – | – | –
8 | C=CC(=O)N1CCCC(n2c(=O)c(Oc3ccc(F)cc3F)cc3cnc(Nc4cnn(C)c4)nc32)CC1 (stereo not shown) [Compound 24] | < 200 | < 200 | < 200 | < 200 | 200 to 600 | 200 to 600 | < 200 | < 100 | < 100 | < 100 | < 100 | 100 to 250 | – | – | –
9 | C=CC(=O)NC1CCCC(n2c(=O)c(Oc3ccc(F)cc3F)cc3cnc(Nc4cnn(C)c4)nc32)C1 (stereo not shown) [Compound 23] | < 200 | < 200 | < 200 | < 200 | < 200 | 200 to 600 | < 200 | < 100 | < 100 | < 100 | < 100 | 100 to 250 | – | – | –
10 | C=CC(=O)Nc1cc(Nc2ncc3cc(Oc4ccc(F)cc4F)c(=O)n(CC(F)(F)F)c3n2)c(OC)cc1N(C)CCN(C)C [Compound 85] | < 200 | < 200 | < 200 | – | – | < 200 | – | – | – | – | – | – | < 200 | < 200 | < 200
11 | C=CC(=O)Nc1ccc(OC)c(Nc2ncc3cc(Oc4ccc(F)cc4F)c(=O)n(CCN(C)C)c3n2)c1 [Compound 94] | < 200 | < 200 | 200 to 600 | – | – | > 1000 | – | – | – | – | – | – | < 200 | < 200 | 200 to 600
12 | C=CC(=O)Nc1cccc(-n2c(=O)c(Oc3ccc(F)cc3F)cc3cnc(Nc4ccc(N5CCC(N6CCN(C)CC6)CC5)cc4)nc32)c1 [Compound 7] | < 200 | < 200 | < 200 | < 200 | < 200 | 200 to 600 | < 200 | < 100 | < 100 | 100 to 250 | < 100 | 100 to 250 | – | – | –
13 | C=CC(=O)Nc1cc(Nc2ncc3cc(Oc4cc(F)c(F)cc4F)c(=O)n(C)c3n2)c(OC)cc1N(C)CCN(C)C [Compound 135] | < 200 | < 200 | < 200 | – | – | 200 to 600 | – | – | – | – | – | – | < 200 | < 200 | < 200
14 | C=CC(=O)N1CCC[C@@H](n2c(=O)c(Oc3ccc(F)cc3F)cc3cnc(Nc4cnn(C5CCN(C)CC5)c4)nc32)C1 [Compound 17] | < 200 | < 200 | < 200 | < 200 | 200 to 600 | 600 to 1000 | < 200 | < 100 | < 100 | < 100 | < 100 | 250 to 500 | – | – | –
15 | C=CC(=O)N1CCC[C@@H](n2c(=O)c(Oc3ccc(F)cc3F)cc3cnc(Nc4cnn(C)c4)nc32)C1 [Compound 15, (R)-8-(1-acryloylpiperidin-3-yl)-6-(2,4-difluorophenoxy)-2-((1-methyl-1H-pyrazol-4-yl)amino)pyrido[2,3-d]pyrimidin-7(8H)-one] | < 200 | < 200 | < 200 | < 200 | 200 to 600 | > 1000 | < 200 | < 100 | < 100 | < 100 | < 100 | 100 to 250 | – | – | –
16 | C=CC(=O)Nc1cccc(-n2c(=O)c(Oc3ccc(F)cc3F)cc3cnc(Nc4cnn(C(F)F)c4)nc32)c1 [Compound 5] | < 200 | < 200 | < 200 | < 200 | < 200 | < 200 | < 200 | < 100 | < 100 | 100 to 250 | < 100 | 100 to 250 | – | – | –
17 | C=CC(=O)Nc1cccc(-n2c(=O)c(Oc3ccc(F)cc3F)cc3cnc(Nc4ccc(N5CCN(C)CC5)cc4OC)nc32)c1 [Compound 6] | < 200 | < 200 | < 200 | < 200 | < 200 | < 200 | < 200 | < 100 | < 100 | 100 to 250 | < 100 | < 100 | – | – | –
